Laboratory results reported in the supplement of paper PMC10307832.

What was measured:
Test in all cases: relative viability (nuclei count vs DMSO), 5 days (fraction); higher = more cells survive
Bleomycin + Bortezomib = compound: CC1=C(N=C(N=C1N)[C@H](CC(=O)N)NC[C@@H](C(=O)N)N)C(=O)N[C@@H]([C@H](C2=CN=CN2)OC3C(C(C(C(O3)CO)O)O)OC4C(C(C(C(O4)CO)O)OC(=O)N)O)C(=O)N[C@H](C)[C@H]([C@H](C)C(=O)N[C@@H]([C@@H](C)O)C(=O)NCCC5=NC(=CS5)C6=NC(=CS6)C(=O)NCCC[S+](C)C)O [Bleomycin] + CC(C)C[C@H](NC(=O)[C@H](Cc1ccccc1)NC(=O)c1cnccn1)B(O)O [Bortezomib] (partner 0.002 µM); settings: main component drawn
In short: (§1)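 The day after seeding in 1536-well plates, lung cancer cell lines were treated by pin tool with a single drug, or with a fixed anchor-drug dose together with five library-drug doses (not always all listed) in √10 steps. After 5 days, a combined fix-and-stain solution (final 0.05% Triton X-100, 1% formaldehyde, 1 ug/ml Hoechst) was added. Nuclei counted on 4× images gave relative viability as treated counts over vehicle counts, reported as the median of duplicate plates.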

Bleomycin + Decitabine = compound: CC1=C(N=C(N=C1N)[C@H](CC(=O)N)NC[C@@H](C(=O)N)N)C(=O)N[C@@H]([C@H](C2=CN=CN2)OC3C(C(C(C(O3)CO)O)O)OC4C(C(C(C(O4)CO)O)OC(=O)N)O)C(=O)N[C@H](C)[C@H]([C@H](C)C(=O)N[C@@H]([C@@H](C)O)C(=O)NCCC5=NC(=CS5)C6=NC(=CS6)C(=O)NCCC[S+](C)C)O [Bleomycin] + Nc1ncn([C@H]2C[C@H](O)[C@@H](CO)O2)c(=O)n1 [Decitabine] (partner 2 µM); settings: main component drawn
In short: as §1

Etoposide + Luminespib = compound: COc1cc([C@@H]2c3cc4c(cc3[C@@H](O[C@@H]3O[C@@H]5CO[C@@H](C)O[C@H]5[C@H](O)[C@H]3O)[C@H]3COC(=O)[C@H]23)OCO4)cc(OC)c1O [Etoposide] + CCNC(=O)c1noc(-c2cc(C(C)C)c(O)cc2O)c1-c1ccc(CN2CCOCC2)cc1 [Luminespib] (partner 0.01 µM)
In short: as §1

Etoposide + Dasatinib = compound: COc1cc([C@@H]2c3cc4c(cc3[C@@H](O[C@@H]3O[C@@H]5CO[C@@H](C)O[C@H]5[C@H](O)[C@H]3O)[C@H]3COC(=O)[C@H]23)OCO4)cc(OC)c1O [Etoposide] + Cc1nc(Nc2ncc(C(=O)Nc3c(C)cccc3Cl)s2)cc(N2CCN(CCO)CC2)n1 [Dasatinib] (partner 0.075 µM)
In short: as §1

Cell Line | relative viability (Bleomycin + Bortezomib; first compound 0.01 µM) | relative viability (Bleomycin + Bortezomib; first compound 0.03162 µM) | relative viability (Bleomycin + Bortezomib; first compound 0.1 µM) | relative viability (Bleomycin + Bortezomib; first compound 0.3162 µM) | relative viability (Bleomycin + Bortezomib; first compound 1 µM) | relative viability (Bleomycin + Decitabine; first compound 0.01 µM) | relative viability (Bleomycin + Decitabine; first compound 0.03162 µM) | relative viability (Bleomycin + Decitabine; first compound 0.1 µM) | relative viability (Bleomycin + Decitabine; first compound 0.3162 µM) | relative viability (Bleomycin + Decitabine; first compound 1 µM) | relative viability (Etoposide + Luminespib; first compound 0.01 µM) | relative viability (Etoposide + Luminespib; first compound 0.03162 µM) | relative viability (Etoposide + Luminespib; first compound 0.1 µM) | relative viability (Etoposide + Luminespib; first compound 0.3162 µM) | relative viability (Etoposide + Luminespib; first compound 1 µM) | relative viability (Etoposide + Dasatinib; first compound 0.01 µM) | relative viability (Etoposide + Dasatinib; first compound 0.03162 µM) | relative viability (Etoposide + Dasatinib; first compound 0.1 µM) | relative viability (Etoposide + Dasatinib; first compound 0.3162 µM) | relative viability (Etoposide + Dasatinib; first compound 1 µM)
LC-2-ad | 0.943 | 0.624 | 0.316 | 0.127 | 0.0954 | 0.72 | 0.737 | 0.541 | 0.309 | 0.292 | 0.899 | 0.833 | 0.711 | 0.34 | 0.305 | 0.546 | 0.612 | 0.451 | 0.244 | 0.142
LCLC-97TM1 | 0.173 | 0.17 | 0.0959 | 0.077 | 0.0823 | 0.2 | 0.156 | 0.168 | 0.158 | 0.0988 | 0.788 | 0.78 | 0.465 | 0.175 | 0.154 | 0.858 | 0.943 | 0.933 | 0.681 | 0.179
LCLC-103H | 1.07 | 1.12 | 1.1 | 0.556 | 0.467 | 0.676 | 0.68 | 0.677 | 0.721 | 0.537 | 0.924 | 1.17 | 0.954 | 0.832 | 0.541 | 0.466 | 0.482 | 0.417 | 0.546 | 0.42
LOU-NH91 | 0.493 | 0.439 | 0.355 | 0.335 | 0.348 | 0.624 | 0.611 | 0.472 | 0.38 | 0.406 | 0.318 | 0.38 | 0.306 | 0.311 | 0.284 | 0.579 | 0.601 | 0.492 | 0.566 | 0.395
LU99A | 0.763 | 0.83 | 0.602 | 0.167 | 0.128 | 0.77 | 0.809 | 0.64 | 0.448 | 0.211 | 0.279 | 0.255 | 0.246 | 0.22 | 0.217 | 0.427 | 0.727 | 0.262 | 0.395 | 0.142
LXF-289 | 0.861 | 0.944 | 0.775 | 0.27 | 0.135 | 0.381 | 0.407 | 0.406 | 0.24 | 0.161 | 0.569 | 0.861 | 0.79 | 0.367 | 0.129 | 0.209 | 0.217 | 0.231 | 0.206 | 0.0795
NCI-H23 | 0.424 | 0.374 | 0.276 | 0.165 | 0.2 | 0.307 | 0.265 | 0.235 | 0.184 | 0.177 | 0.23 | 0.204 | 0.207 | 0.212 | 0.246 | 0.805 | 0.821 | 0.504 | 0.384 | 0.185
NCI-H322M | 1.07 | 1.13 | 1.36 | 0.708 | 0.592 | 0.809 | 0.612 | 0.635 | 0.659 | 0.48 | 0.789 | 0.846 | 0.553 | 0.486 | 0.392 | 0.272 | 0.237 | 0.232 | 0.26 | 0.254
NCI-H441 | – | 0.886 | 0.458 | 0.226 | 0.211 | 0.233 | 0.238 | 0.221 | 0.217 | 0.224 | 0.307 | 0.28 | 0.331 | 0.259 | 0.256 | 0.58 | 0.677 | 0.398 | 0.285 | 0.147
NCI-H460 | 0.331 | 0.286 | 0.103 | 0.0317 | 0.0212 | 0.301 | 0.228 | 0.279 | 0.0468 | 0.0408 | 0.0412 | 0.0382 | 0.0395 | 0.0281 | 0.0302 | 0.432 | 0.509 | 0.285 | 0.132 | 0.0414
NCI-H520 | 0.596 | 0.33 | 0.708 | 0.142 | 0.293 | 0.501 | 0.54 | 0.456 | 0.424 | 0.416 | 0.204 | 0.198 | – | 0.218 | 0.219 | 0.22 | 0.239 | 0.181 | 0.208 | 0.269
NCI-H596 | 0.662 | 0.686 | 0.637 | 0.402 | 0.521 | 1 | 0.83 | 0.55 | 0.495 | 0.509 | 1.01 | 0.883 | 0.986 | 0.771 | 0.681 | 0.608 | 0.657 | 0.543 | 0.647 | 0.507
NCI-H647 | 0.39 | 0.299 | 0.223 | 0.118 | 0.0632 | 0.289 | 0.183 | 0.152 | 0.0939 | 0.0806 | 0.134 | 0.164 | 0.164 | 0.134 | 0.0949 | 0.157 | 0.161 | 0.174 | 0.145 | 0.036
NCI-H650 | 0.548 | 0.697 | 0.569 | 0.259 | 0.214 | 0.305 | 0.318 | 0.299 | 0.2 | 0.175 | 0.695 | 0.895 | 0.336 | 0.179 | 0.174 | 0.457 | 0.472 | 0.342 | 0.372 | 0.215
